Data on three substances can be found in US10328143B2, “Hemagglutinin-binding peptide” (priority 2014, dated 2019).

The subject of the assay is influenza virus H5N1-Vac3. Format: cell-based.

Take “Cyclo(Ac-Trp-Thr-MeGly-Asp-MePhe-MePhe-Ser-MeSer-His-Tyr-Thr-Val-Pro-Ala-Cys)-amide [iHA-100-R14A]”: the anti-viral effect result is listed as “high anti-viral effect” and the “anti-viral effect at low concentration” value is recorded as “high anti-viral effect even when their concentration is low”.

In the case of “Cyclo(Ac-Trp-Thr-MeGly-Asp-MePhe-MePhe-Ser-MeSer-His-Tyr-Thr-Val-Pro-Dap-Cys)-amide [iHA-100-R14Dap]”, the anti-viral effect entry is listed as “high anti-viral effect” and the “anti-viral effect at low concentration” value is on record as “high anti-viral effect even when their concentration is low”.

As for “Cyclo(Ac-Trp-Thr-MeGly-Asp-MePhe-MePhe-Ser-MeSer-His-Tyr-Thr-Val-Pro-Glu-Cys)-amide [iHA-100-R14E]”, the anti-viral effect entry is recorded as “high anti-viral effect”.
